Laboratory results published in patent US20230065014A1, “Nitro-Fatty Acid-Containing Microbubbles and Uses Therefor” (University of Pittsburgh-Of the Commonwealth System of …, priority 2020, published 2023).

How the values were obtained:
[1] = biological target: T1, PPAR-γ (peroxisome proliferator activated receptor gamma) (Homo sapiens, UniProt P37231); conditions: as described in WO 2010/014889 A2; cited from earlier work
T1 sequence (P37231 1-505): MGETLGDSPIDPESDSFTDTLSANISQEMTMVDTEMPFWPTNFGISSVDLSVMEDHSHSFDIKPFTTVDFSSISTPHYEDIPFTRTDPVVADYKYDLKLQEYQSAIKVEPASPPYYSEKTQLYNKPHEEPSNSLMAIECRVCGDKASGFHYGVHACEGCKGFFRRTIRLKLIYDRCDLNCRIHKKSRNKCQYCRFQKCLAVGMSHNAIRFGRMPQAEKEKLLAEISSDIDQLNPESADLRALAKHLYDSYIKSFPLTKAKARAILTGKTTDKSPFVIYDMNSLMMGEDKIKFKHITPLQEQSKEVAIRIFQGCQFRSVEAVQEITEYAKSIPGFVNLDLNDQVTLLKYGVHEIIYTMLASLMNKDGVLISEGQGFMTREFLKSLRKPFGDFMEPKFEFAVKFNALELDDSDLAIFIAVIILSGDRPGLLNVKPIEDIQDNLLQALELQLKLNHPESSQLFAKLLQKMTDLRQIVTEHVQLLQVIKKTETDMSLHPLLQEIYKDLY

human stellate cells = conditions: in vitro; cited from earlier work
[2] = test system: Bleomycin-treated 3 mo old C57Bl6 mice; assay: Reversal of established fibrosis in bleomycin-treated mice; type: in vivo; conditions: 7.5 mg/kg oral, 2 additional weeks
Description: Nitroalkenes can reverse established fibrosis.

hepatocytes = conditions: in vitro; cited from earlier work
[3] = test system: long-term NASH diet-induced liver damage; conditions: NASH diet mice; cited from earlier work
[4] = test system: fibrotic vascular and tissue remodeling in heart, liver and lung; conditions: Ang II, hypoxia and obesity models; cited from earlier work

Q: With `CCCCCC=CC/C(=C\CCCCCCCC(=O)O)[N+](=O)[O-]` (stereo in doubt) [10-nitro linoleic acid, (9E,12Z)-10-nitrooctadeca-9,12-dienoic acid] as the compound, how does the “activation of the PPAR-γ receptor” value [1] read?
A: Its value is “potent, selective activators”.

Q: Which “activation of the PPAR-γ receptor” value [1] does the source give for `CCCCC/C=C(\C/C=C\CCCCCCCC(=O)O)[N+](=O)[O-]` [12-nitro linoleic acid, 12-nitrolinoleic acid] here?
A: The value was “potent, selective activators”.

Q: With NO2-oleic acid as the compound, how does the fibrogenesis (human stellate cells) read?
A: The fibrogenesis was “inhibited fibrogenesis”.

Q: And the Ashcroft scoring [2]?
A: Its Ashcroft scoring is “decreased collagen deposition”.

Q: And the “Masson's trichrome and αSMA staining” value [2]?
A: Its value is “resolution of pathologic remodeling”.

Q: What about the “qRT-PCR of TGFβ, Col1A1, αSMA, vimentin, MMP7 and E-cadherin expression” value [2] of the same compound?
A: Its value is “inhibition of these pro-fibrotic indices”.

Q: And the reversal of fibrosis [2]?
A: Its reversal of fibrosis is “significant reversal of fibrosis”.

Q: And the “activation of the PPAR-γ receptor” value [1]?
A: Its value is “nanomolar activators”.

Q: And the “TG biosynthesis and accumulation” value (hepatocytes)?
A: The value was “inhibited TG biosynthesis and accumulation”.

Q: What about the “RNA-sequencing analysis of liver tissue” value [3] of the same compound?
A: The value was “inflammation and fibrosis as major pathways suppressed”.

Q: And the “SREBPI proteolytic activation and subsequent lipogenesis gene expression” value [3]?
A: Its value is “inhibition of SREBPI proteolytic activation and subsequent lipogenesis gene expression”.

Q: And the “body composition and energy metabolism (CLAMS and NMR-based analysis)” value [3]?
A: The value was “improved body composition and energy metabolism”.

Q: What about the “hepatic triglyceride (TG) accumulation” value [3] of the same compound?
A: Its value is “inhibiting hepatic triglyceride (TG) accumulation”.

Q: What about the “liver steatosis and fibrosis by photoacoustic-ultrasound imaging” value [3] of the same compound?
A: The value was “robust inhibition of liver steatosis and fibrosis”.

Q: And the “fibrotic vascular and tissue remodeling” value [4]?
A: Its value is “inhibit fibrotic vascular and tissue remodeling”.

Q: Which results are given for Nitro-linoleic acid?
A: activation of the PPAR-γ receptor [1]: nanomolar activators; fibrotic vascular and tissue remodeling [4]: inhibit fibrotic vascular and tissue remodeling
